Laboratory results from ChEMBL document CHEMBL5543155, “Design, Synthesis, and Biological Evaluation of β-Trifluoroethoxydimethyl Selenides as Potent Antiosteoporosis Agents” (J Med Chem, 2024).
Activity calls are given as the source filed them. The rule behind the calls is not given here.

Tests used:
BMMC [1] = assay: Anti-osteoclastogenesis activity in M-CSF/RANKL-induced C57BL/6 mouse BMMC cells assessed as downregulation of MMP-9 gene expression incubated for 5 days by qRT-PCR analysis; assay type: functional, cell-based; settings: dose 0-10 µM, time 5.0 day
RAW264.7 [2] = assay: Cytotoxicity against mouse RAW264.7 cells assessed as cell destruction at 5 uM incubated for 48 hrs by MTT assay; assay type: toxicity, cell-based; settings: raw264.7, 48 h
RAW264.7 [3] = assay: Inhibition of RANKL-induced osteoclast differentiation in mouse RAW264.7 cells at 5 uM incubated for 4 days with media replacement for every 2 days by TRAP-staining based light microscopic analysis; assay type: functional, cell-based; settings: time 4.0 day
BMMC [4] = assay: Anti-osteoclastogenesis activity in M-CSF/RANKL-induced C57BL/6 mouse BMMC cells assessed as reduction in size of TRAP-positive osteoclasts at 0 to 10 uM incubated for 6 days with media replacement for every 2 days by TRAP-staining based light microscopic analysis; assay type: functional, cell-based; settings: dose 0-10 µM, time 6.0 day
BMMC [5] = assay: Anti-osteoclastogenesis activity in M-CSF/RANKL-induced C57BL/6 mouse BMMC cells assessed as inhibition of osteoclasts formation incubated for 6 days with media replacement for every 2 days by TRAP-staining based light microscopic analysis; assay type: functional, cell-based
BMMC [6] = assay: Anti-osteoclastogenesis activity in M-CSF/RANKL-induced C57BL/6 mouse BMMC cells assessed as reduction in F-actin ring formation incubated for 7 days with media replacement for every other day by TRITC phalloidin/DAPI-staining based fluorescence microscopic analysis; assay type: functional, cell-based; settings: dose 0-10 µM, time 7.0 day
BMMC [7] = assay: Anti-osteoclastogenesis activity in M-CSF/RANKL-induced C57BL/6 mouse BMMC cells assessed as prevention of osteoclasts precursor differentiation at 5 uM measured on day 1 to 3 by TRAP-staining based light microscopic analysis; assay type: functional, cell-based; settings: time 1-3 day
BMMC [8] = assay: Anti-osteoclastogenesis activity in M-CSF/RANKL-induced C57BL/6 mouse BMMC cells assessed as downregulation of TRAP gene expression incubated for 5 days by qRT-PCR analysis; assay type: functional, cell-based; settings: dose 0-10 µM, time 5.0 day
BMMC [9] = assay: Anti-osteoclastogenesis activity in M-CSF/RANKL-induced C57BL/6 mouse BMMC cells assessed as downregulation of C-Fos gene expression incubated for 5 days by qRT-PCR analysis; assay type: functional, cell-based; settings: dose 0-10 µM, time 5.0 day
BMMC [10] = assay: Anti-osteoclastogenesis activity in M-CSF/RANKL-induced C57BL/6 mouse BMMC cells assessed as downregulation of NFATc1 gene expression incubated for 5 days by qRT-PCR analysis; assay type: functional, cell-based; settings: dose 0-10 µM, time 5.0 day
BMMC [11] = assay: Inhibition of ERK phosphorylation in RANKL-induced C57BL/6 mouse BMMC cells at 5 uM pretreated for 6 hrs followed by RANKL stimulation and measured upto 60 mins by Western blot analysis; assay type: cell-based; settings: time <= 7.0 hrs
BMMC [12] = assay: Effect on total ERK protein expression in RANKL-induced C57BL/6 mouse BMMC cells at 5 uM pretreated for 6 hrs followed by RANKL stimulation and measured upto 60 mins by Western blot analysis; assay type: functional, cell-based; settings: time <= 7.0 hrs
BMMC [13] = assay: Effect on total p38 protein expression in RANKL-induced C57BL/6 mouse BMMC cells at 5 uM pretreated for 6 hrs followed by RANKL stimulation and measured upto 60 mins by Western blot analysis; assay type: functional, cell-based; settings: time <= 7.0 hrs
[14] = target: T1, NF-kappa-B inhibitor alpha (Mus musculus) (UniProt Q9Z1E3); assay: Inhibition of RANKL-induced IkappaBalpha phosphorylation in C57BL/6 mouse BMMC cells at 5 uM pretreated for 6 hrs followed by RANKL stimulation and measured upto 60 mins by Western blot analysis; assay type: cell-based; settings: time <= 7.0 hrs
T1 sequence (whole entry): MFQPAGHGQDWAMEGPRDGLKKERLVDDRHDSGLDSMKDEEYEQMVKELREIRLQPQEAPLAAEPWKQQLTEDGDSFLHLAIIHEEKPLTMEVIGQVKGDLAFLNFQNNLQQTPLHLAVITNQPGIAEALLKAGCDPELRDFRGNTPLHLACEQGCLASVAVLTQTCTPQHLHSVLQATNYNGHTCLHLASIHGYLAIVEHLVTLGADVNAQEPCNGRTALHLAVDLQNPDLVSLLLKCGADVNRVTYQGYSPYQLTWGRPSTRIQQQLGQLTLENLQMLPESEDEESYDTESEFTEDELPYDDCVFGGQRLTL

[15] = target: T1, NF-kappa-B inhibitor alpha (Mus musculus); assay: Inhibition of RANKL-induced IkappaBalpha degradation in C57BL/6 mouse BMMC cells at 5 uM pretreated for 6 hrs followed by RANKL stimulation and measured upto 60 mins by Western blot analysis; assay type: cell-based; settings: time <= 7.0 hrs
MC3T3-E1 [16] = assay: Induction of osteoblast differentiation in mouse MC3T3-E1 cells assessed as increase in ALP activity measured after 7 days by ALP staining based inverted microscopic analysis; assay type: functional, cell-based; settings: dose 2.5-10 µM, time 7.0 day
MC3T3-E1 [17] = assay: Induction of osteoblast differentiation in mouse MC3T3-E1 cells assessed as bone formation by measuring increase in calcium deposition measured after 21 days by Alizarin red S staining based inverted microscopic analysis; assay type: functional, cell-based; settings: dose 2.5-10 µM, time 21.0 day
MC3T3-E1 [18] = assay: Cytotoxicity against mouse MC3T3-e1 cells assessed as reduction in cell viability at 2.5 to 10 uM measured after 7 days by MTT assay; assay type: toxicity, cell-based; settings: mc3t3-e1, 168 h, dose 2.5-10 µM, time 7 day
MC3T3-E1 [19] = assay: Induction of osteoblast differentiation in mouse MC3T3-E1 cells assessed as bone formation by measuring increase in Runx2 protein expression measured after 7 days by Western blot analysis; assay type: functional, cell-based; settings: dose 2.5-10 µM, time 7.0 day
MC3T3-E1 [20] = assay: Induction of osteoblast differentiation in mouse MC3T3-E1 cells assessed as bone formation by measuring increase in Smad protein expression measured after 7 days by Western blot analysis; assay type: functional, cell-based; settings: dose 2.5-10 µM, time 7.0 day
[21] = Toxicity in OVX osteoporotic C57BL/6 mouse assessed as effect on size and surface gloss of heart at 10 mg/kg, ip administered every other day for 8 weeks by H and E staining based analysis; assay type: organism-based; settings: in vivo, 1344 h
[22] = Toxicity in OVX osteoporotic C57BL/6 mouse assessed as effect on size and surface gloss of spleen at 10 mg/kg, ip administered every other day for 8 weeks by H and E staining based analysis; assay type: organism-based; settings: in vivo, 1344 h
[23] = Toxicity in OVX osteoporotic C57BL/6 mouse assessed as effect on size and surface gloss of kidney at 10 mg/kg, ip administered every other day for 8 weeks by H and E staining based analysis; assay type: organism-based; settings: in vivo, 1344 h
Mus musculus [24] = assay: Anti-osteoporosis activity in ovariectomized C57BL/6 mouse assessed as reduction in bone loss by measuring increase in bone volume/total bone volume (BV/TV) at 10 mg/kg, ip administered every other day for 8 weeks by micro-CT analysis; assay type: functional, organism-based
Mus musculus [25] = assay: Anti-osteoporosis activity in ovariectomized C57BL/6 mouse assessed as reduction in bone loss by measuring increase in trabecular thickness at 10 mg/kg, ip administered every other day for 8 weeks by micro-CT analysis; assay type: functional, organism-based
Mus musculus [26] = assay: Anti-osteoporosis activity in ovariectomized C57BL/6 mouse assessed as reduction in bone loss at 10 mg/kg, ip administered every other day for 8 weeks by H and E staining based analysis; assay type: functional, organism-based
Mus musculus [27] = assay: Anti-osteoporosis activity in ovariectomized C57BL/6 mouse assessed as reduction in bone loss by measuring decrease in TRAP-positive cells around trabecula at 10 mg/kg, ip administered every other day for 8 weeks by TRAP staining based analysis; assay type: functional, organism-based

## CC(C)(OCC(F)(F)F)C([Se]c1ccccc1)C(=O)Nc1ccncc1 (stereo not drawn)
BMMC [1]
  Activity: Dose-Dependent Effect
RAW264.7 [2]
  Activity: Non-Toxic
RAW264.7 [3]
  inhibition: Active
BMMC [4]
  Activity: Active
BMMC [5]; C57BL/6, BMMC
  IC50: 2410 nM
BMMC [5]; dose 0-10 µM, time 6.0 day
  Activity: Dose-Dependent Effect
BMMC [6]
  Activity: Dose-Dependent Effect
BMMC [7]
  Activity: Active
BMMC [8]
  Activity: Dose-Dependent Effect
BMMC [9]
  Activity: Dose-Dependent Effect
BMMC [10]
  Activity: Dose-Dependent Effect
BMMC [11]
  inhibition: Active
BMMC [12]
  Activity: inactive
BMMC [13]
  Activity: inactive
[14]
  inhibition: Active
[15]
  inhibition: Active
MC3T3-E1 [16]
  Activity: Dose-Dependent Effect
MC3T3-E1 [17]
  Activity: Dose-Dependent Effect
MC3T3-E1 [18]
  Activity: Non-Toxic
MC3T3-E1 [19]
  Activity: Dose-Dependent Effect
MC3T3-E1 [20]
  Activity: Dose-Dependent Effect
[21]
  Activity: Non-Toxic
[22]
  Activity: Non-Toxic
[23]
  Activity: Non-Toxic
Mus musculus [24]
  Activity: Active
Mus musculus [25]
  Activity: Active
Mus musculus [26]
  Activity: Active
Mus musculus [27]
  Activity: Active
